Among the data in patent publication US20200399222A1, “PICOLINAMIDES AS FUNGICIDES” (Dow AgroSciences LLC, priority 2018, published 2020) are pest or weed control values, retold here.

Assay [1] deals with Zymoseptoria tritici. The assay is described as follows: Leaf blotch of wheat (SEPTTR) disease control on wheat seedlings. To be noted: High volume application, 100 ppm. The format is in vivo. As for the experimental part:
Example A: Evaluation of Fungicidal Activity: Leaf Blotch of Wheat (Zymoseptoria tritici; Bayer Code […]) Technical grades of materials were dissolved in acetone, which were then mixed with nine volumes of water containing 110 ppm Triton X-100. The fungicide solutions were applied onto wheat seedlings using an automated booth sprayer to run-off. All sprayed plants were allowed to air dry prior to further handling. All fungicides were evaluated using the aforementioned method for their activity vs. all target diseases, unless stated otherwise. Wheat leaf blotch and brown rust activity were also evaluated using track spray applications, in which case the fungicides were formulated as EC formulations, containing 0.1% Trycol 5941 in the spray solutions. Wheat plants (variety Yuma) were grown from seed in a greenhouse in 50% mineral soil/50% soil-less Metro mix until the first leaf was fully emerged, with 7-10 seedlings per pot. These plants were inoculated with an aqueous spore suspension of Zymoseptoria tritici either prior to or after fungicide treatments. After inoculation the plants were kept in 100% relative humidity (one day in a dark dew chamber followed by two to three days in a lighted dew chamber at 20° C.) to permit spores to germinate and infect the leaf. The plants were then transferred to a greenhouse set at 20° C. for disease to develop. When disease symptoms were fully expressed on the 1st leaves of untreated plants, infection levels were assessed on a scale of 0 to 100 percent disease severity. Percent disease control was calculated using the ratio of disease severity on treated plants relative to untreated plants.

Assay [2] relates to Puccinia triticina. The assay is described as follows: Wheat brown rust (PUCCRT) disease control on wheat seedlings. The format is in vivo. To be noted: High volume application, 100 ppm. As for the experimental part:
Technical grades of materials were dissolved in acetone, which were then mixed with nine volumes of water containing 110 ppm Triton X-100. The fungicide solutions were applied onto wheat seedlings using an automated booth sprayer to run-off. All sprayed plants were allowed to air dry prior to further handling. All fungicides were evaluated using the aforementioned method for their activity vs. all target diseases, unless stated otherwise. Wheat leaf blotch and brown rust activity were also evaluated using track spray applications, in which case the fungicides were formulated as EC formulations, containing 0.1% Trycol 5941 in the spray solutions. Example B: Evaluation of Fungicidal Activity: Wheat Brown Rust (Puccinia triticina; Synonym: Puccinia recondita f. sp. tritici; Bayer Code PUCCRT) Wheat plants (variety Yuma) were grown from seed in a greenhouse in 50% mineral soil/50% soil-less Metro mix until the first leaf was fully emerged, with 7-10 seedlings per pot. These plants were inoculated with an aqueous spore suspension of Puccinia triticina either prior to or after fungicide treatments. After inoculation the plants were kept in a dark dew room at 22° C. with 100% relative humidity overnight to permit spores to germinate and infect the leaf. The plants were then transferred to a greenhouse set at 24° C. for disease to develop. Fungicide formulation, application and disease assessment followed the procedures as described in the Example A.

Where [3] appears, read: 24 h, 1 Day Protectant, read-out: SEPTTR disease control rating, 1DP.
Where [4] appears, read: 72 h, 3 Day Curative, read-out: SEPTTR disease control rating, 3DC.
Where [5] appears, read: 24 h, 1 Day Protectant, read-out: PUCCRT disease control rating, 1DP.
Where [6] appears, read: 72 h, 3 Day Curative, read-out: PUCCRT disease control rating, 3DC.

Like-named read-outs stand apart in the source and are kept apart here.

In the case of `COc1ccnc(C(=S)N[C@@H](C)C(=O)O[C@@H](C)[C@@H](C)c2ccc(F)cc2C(F)(F)F)c1O` [Example 268], the pest or weed control at 100 ppm was < 80% in assay [1] (setting [3]), < 80% in assay [1] (setting [4]), > 80% in assay [2] (setting [5]) and < 80% in assay [2] (setting [6]).

Take `COc1ccnc(C(=O)NCC(=O)O[C@@H](C)[C@H](C)c2ccc(F)cc2C)c1O` [Example 119]: the pest or weed control at 100 ppm in assay [1] (setting [3]) was < 0%; in assay [1] (setting [4]), < 80%; in assay [2] (setting [5]), > 80%; in assay [2] (setting [6]) it was < 80%.

As to `COc1ccnc(C(=O)NCC(=O)O[C@@H](C)[C@@H](C)c2ccc(F)cc2C)c1O` [Example 118], the pest or weed control at 100 ppm is < 0% in assay [1] (setting [3]), < 80% in assay [1] (setting [4]), > 80% in assay [2] (setting [5]) and > 80% in assay [2] (setting [6]).

`COc1ccnc(C(=O)N[C@H](C(=O)O[C@H](C)[C@@H](C)c2ccc(F)cc2C)C(C)C)c1O` [Example 144]: the pest or weed control at 100 ppm is < 80% in assay [1] (setting [3]), < 80% in assay [1] (setting [4]), < 0% in assay [2] (setting [5]) and < 80% in assay [2] (setting [6]).

Take `COc1ccnc(C(=O)N[C@@H](C)C(=O)O[C@@H](C)[C@@H](C)c2ccc(C)cc2C)c1O` [Example 116]: the pest or weed control at 100 ppm is < 80% in assay [1] (setting [3]), > 80% in assay [1] (setting [4]), > 80% in assay [2] (setting [5]) and > 80% in assay [2] (setting [6]).

Turning to `COc1ccnc(C(=O)N[C@@H](C)C(=O)O[C@@H](C)[C@@H](C)C2CCCC2)c1O` [Example 160], the pest or weed control at 100 ppm in assay [1] (setting [3]) is < 80%; in assay [1] (setting [4]), < 80%; in assay [2] (setting [5]) it was < 80%; in assay [2] (setting [6]), > 80%.

In the case of `COc1ccnc(C(=O)N[C@H](C)C(=O)O[C@@H](C)[C@@H](C)c2ccc(F)cc2C)c1O` [Example 148], the pest or weed control at 100 ppm is > 80% in assay [1] (setting [3]), < 80% in assay [1] (setting [4]), > 80% in assay [2] (setting [5]) and < 80% in assay [2] (setting [6]).

Consider `COc1ccc([C@@H](C)[C@@H](C)OC(=O)[C@@H](NC(=O)c2nccc(OC)c2O)C(C)C)c(C)c1` [Example 147], for which the pest or weed control at 100 ppm was > 80% in assay [1] (setting [3]), < 80% in assay [1] (setting [4]), > 80% in assay [2] (setting [5]) and < 80% in assay [2] (setting [6]).

For the compound `COc1ccnc(C(=O)N[C@@H](C)C(=O)O[C@H](C)[C@@H](C)c2ccc(F)cc2C)c1O` [Example 134], the pest or weed control at 100 ppm in assay [1] (setting [3]), in assay [1] (setting [4]), in assay [2] (setting [5]) and in assay [2] (setting [6]) was < 80% throughout.

For the compound `COc1ccccc1[C@H](C)[C@H](C)OC(=O)[C@H](C)NC(=O)c1nccc(OC)c1O` [Example 170], the pest or weed control at 100 ppm was < 80% in assay [1] (setting [3]), < 80% in assay [1] (setting [4]), > 80% in assay [2] (setting [5]) and > 80% in assay [2] (setting [6]).

`COc1ccnc(C(=O)N[C@@H](C)C(=O)O[C@H](C)[C@H](C)c2ccc(F)cc2C(F)(F)F)c1O` [Example 162]: the pest or weed control at 100 ppm in assay [1] (setting [3]) was < 80%; in assay [1] (setting [4]), < 80%; in assay [2] (setting [5]), < 0%; in assay [2] (setting [6]), < 0%.

Consider `COc1ccnc(C(=O)N[C@H](C(=O)O[C@@H](C)[C@H](C)c2ccc(F)cc2C)C(C)C)c1O` [Example 139], for which the pest or weed control at 100 ppm in assay [1] (setting [3]) was < 80%; in assay [1] (setting [4]), < 80%; in assay [2] (setting [5]), < 80%; in assay [2] (setting [6]) it was < 0%.

In the case of `COc1ccnc(C(=O)N[C@H](C(=O)O[C@@H](C)[C@H](C)c2ccccc2C)C(C)C)c1O` [Example 140], the pest or weed control at 100 ppm in assay [1] (setting [3]) was < 80%; in assay [1] (setting [4]) it was < 80%; in assay [2] (setting [5]), > 80%; in assay [2] (setting [6]), < 80%.

`COc1ccnc(C(=O)NCC(=O)O[C@H](C)[C@H](C)c2ccc(F)cc2)c1O` [Example 126]: the pest or weed control at 100 ppm was < 0% in assay [1] (setting [3]), < 80% in assay [1] (setting [4]), > 80% in assay [2] (setting [5]) and < 80% in assay [2] (setting [6]).

As to `COc1ccc([C@H](C)[C@H](C)OC(=O)[C@H](C)NC(=O)c2nccc(OC)c2O)c(C)c1` [Example 132], the pest or weed control at 100 ppm was > 80% in assay [1] (setting [3]), < 80% in assay [1] (setting [4]), > 80% in assay [2] (setting [5]) and > 80% in assay [2] (setting [6]).

Take `COc1ccnc(C(=O)N[C@H](C)C(=O)O[C@@H](C)[C@H](C)c2ccccc2C)c1O` [Example 150]: the pest or weed control at 100 ppm in assay [1] (setting [3]) was < 80%; in assay [1] (setting [4]), < 80%; in assay [2] (setting [5]), < 0%; in assay [2] (setting [6]), < 80%.

For `COc1ccc([C@@H](C)[C@@H](C)OC(=O)[C@@H](C)NC(=O)c2nccc(OC)c2O)c(C)c1` [Example 157], the pest or weed control at 100 ppm in assay [1] (setting [3]) was < 80%; in assay [1] (setting [4]) it was < 80%; in assay [2] (setting [5]) it was < 80%; in assay [2] (setting [6]), < 0%.

In the case of `COc1ccnc(C(=O)N[C@H](C(=O)O[C@H](C)[C@@H](C)c2ccccc2C)C(C)C)c1O` [Example 145], the pest or weed control at 100 ppm in assay [1] (setting [3]), in assay [1] (setting [4]), in assay [2] (setting [5]) and in assay [2] (setting [6]) was < 80% each time.

With `COc1ccnc(C(=O)N[C@@H](C)C(=O)O[C@@H](C)[C@@H](C)c2c(C)cccc2C)c1O` [Example 166], the pest or weed control at 100 ppm in assay [1] (setting [3]), in assay [1] (setting [4]), in assay [2] (setting [5]) and in assay [2] (setting [6]) was > 80% each time.

For `COc1ccnc(C(=O)N[C@H](C(=O)O[C@H](C)[C@H](C)c2ccc(F)cc2)C(C)C)c1O` [Example 146], the pest or weed control at 100 ppm in assay [1] (setting [3]) is > 80%; in assay [1] (setting [4]) it was < 80%; in assay [2] (setting [5]) it was > 80%; in assay [2] (setting [6]), < 80%.

Take `COc1ccnc(C(=O)NCC(=O)O[C@H](C)[C@@H](C)c2ccccc2C)c1O` [Example 125]: the pest or weed control at 100 ppm in assay [1] (setting [3]) is < 0%; in assay [1] (setting [4]) it was < 80%; in assay [2] (setting [5]) it was < 80%; in assay [2] (setting [6]), < 0%.

On to `COc1ccnc(C(=O)N[C@@H](C)C(=O)O[C@@H](C)[C@@H](C)c2ccc(F)cc2)c1O` [Example 131], for which the pest or weed control at 100 ppm in assay [1] (setting [3]) is < 80%; in assay [1] (setting [4]) it was < 80%; in assay [2] (setting [5]), > 80%; in assay [2] (setting [6]) it was > 80%.

Take `COc1ccnc(C(=O)NCC(=O)O[C@@H](C)[C@H](C)c2ccccc2C)c1O` [Example 120]: the pest or weed control at 100 ppm is < 0% in assay [1] (setting [3]), < 80% in assay [1] (setting [4]), < 80% in assay [2] (setting [5]) and < 80% in assay [2] (setting [6]).

For `COc1ccnc(C(=O)N[C@@H](C)C(=O)O[C@H](C)[C@H](C)c2c(C)cccc2C)c1O` [Example 168], the pest or weed control at 100 ppm in assay [1] (setting [3]) was < 80%; in assay [1] (setting [4]), > 80%; in assay [2] (setting [5]), > 80%; in assay [2] (setting [6]) it was > 80%.

With `COc1ccnc(C(=O)N[C@H](C(=O)O[C@@H](C)[C@@H](C)c2ccc(F)cc2C)C(C)C)c1O` [Example 138], the pest or weed control at 100 ppm in assay [1] (setting [3]) was > 80%; in assay [1] (setting [4]) it was < 80%; in assay [2] (setting [5]) it was > 80%; in assay [2] (setting [6]), > 80%.

Regarding `COc1ccnc(C(=O)N[C@@H](C)C(=O)OC(C)C(C)c2c(C)cc(F)cc2C)c1O` (some centres unmarked) [Example 165], the pest or weed control at 100 ppm in assay [1] (setting [3]), in assay [1] (setting [4]), in assay [2] (setting [5]) and in assay [2] (setting [6]) was > 80% in each case.
